Experimental data: US10350271B2, “Lipidated peptides for lowering blood glucose” (USTAV ORGANICKE CHEMIE A BIOCHEMIE AKADEMIE VED CR, V.V.I., priority 2014, dated 2019)

Columns and labels:
[1] = target: T1, rat PrRP receptor (Rattus norvegicus, UniProt Q64121); assay: Competitive binding in RC-4B/C rat pituitary cells (125I-rat PrRP31)
T1 construct: host or cells: RC-4B/C rat pituitary cell line
T1 sequence (Q64121 1-370): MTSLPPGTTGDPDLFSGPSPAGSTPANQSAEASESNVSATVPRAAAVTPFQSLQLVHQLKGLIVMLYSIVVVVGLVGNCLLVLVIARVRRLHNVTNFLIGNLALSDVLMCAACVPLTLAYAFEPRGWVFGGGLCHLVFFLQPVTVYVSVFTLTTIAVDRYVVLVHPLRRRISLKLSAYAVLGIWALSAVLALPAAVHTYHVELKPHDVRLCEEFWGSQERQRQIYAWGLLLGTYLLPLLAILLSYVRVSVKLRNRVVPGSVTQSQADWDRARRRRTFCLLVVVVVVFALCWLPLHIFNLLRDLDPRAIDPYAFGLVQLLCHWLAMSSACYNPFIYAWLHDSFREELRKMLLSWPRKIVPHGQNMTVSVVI
Procedure, shortened: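 Intact rat pituitary RC-4B/C cells incubated 60 min at room temperature with […] rat 125I-PrRP31 and unlabeled analog (10^−11 to 10^−4 mol·l^−1) in HEPES pH 7.4 buffer. Cell-bound radioactivity γ-counted after NaOH lysis; one-site competition fit.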

[2] = system: C57BL/6 mice; assay: IPGTT after acute administration in lean mice; assay type: in vivo; settings: lean C57BL/6 mice, 5 mg/kg SC, vs saline
Method: IPGTT was performed in overnight fasted male C57BL/6 mice.
Intraperitoneal glucose tolerance test (IPGTT) was performed in overnight fasted male C57BL/6 mice (AnLab, Praha, Czech Republic) at age of 12 weeks. […] 15 min later, 2 g/kg glucose solution was administered IP. Blood glucose was then measured at 15, 30, 60, 120 min from glucose injection using a glucometer (Glucocard, Arkray, Kyoto, Japan).
IPGTT was performed in overnight fasted male C57BL/6 mice, Blood glucose levels were measured at the beginning and after subcutaneous (SC—beneath the skin) administration of palm-PrRP31 (5 mg/kg SC) or saline (n=7) at time 30, 60, 90 and 120 min post injection. […] Regarding the error bars in the graphs *P<0.05, **P<0.01. IPGTT glucose levels were lower in mice given analog 43 instead of saline, particularly early in the experiment. Total area under the curve was also clearly lower in analog 43 mice.

[3] = system: Wistar rats; assay: IPGTT after acute administration in lean rats; assay type: in vivo; settings: fasted male Wistar rats, 5 mg/kg, vs saline
Method: IPGTT was performed in overnight fasted male Wistar rats.
IPGTT was performed in overnight fasted male Wistar rats (Antab, Praha, Czech Republic) at age of 14 weeks. […] 15 min later, 2 g/kg glucose solution was administered IP. Blood glucose was then measured at 15, 30, 60, and 120 min from glucose injection.
FIG. 4 illustrates a plot of glucose levels after acute administration of palm-PrRP31 in rats. IPGTT was performed in overnight fasted male Wistar rats.

[4] = system: Wistar rats; assay: Food intake in fasted rats after SC injection; assay type: in vivo; settings: overnight fasted rats, compared to controls given vehicle
Method: NMRI mice, C57BL/6 mice, and Wistar rats (AnLab, Prague, Czech Republic) were housed in a temperature of 23° C. and a daily cycle of 12 h light and dark (light from 6:00). They were given ad libitum water and a standard chow diet that contained 25, 9 and 66% of calories of protein, fat and carbohydrate respectively. Energy content of the feed was 3.4 kcal/g (St-1, Mlýn Kocanda, Czech Republic). Db/db mice and their controls (C57BL/6 background) were obtained from Taconic (Denmark), housed under the same conditions as described above, and fed by Altromin (Taconic, Denmark). ZDF-Lepr^fa/Crl, diabetic fa/fa male rats were obtained from Charles River (France), housed under same conditions as described above, and fed with a Purina 5008 diet (IPS Product Supplies Limited, UK). All experiments followed the ethical guidelines for animal experiments and the law of the Czech Republic Nr. 246/1992.
In experiments with C57BL/6 mice or Wistar rats, food intake was measured with overnight fasted animals in individual cages. Food was withdrawn 17 hours prior to injection of lipidated analog of prolactin releasing peptide (PrRP); free access to water was maintained. The administration of either saline, PrRP, or lipidated analogs was performed by SC injection at doses of 1-10 mg/kg (which corresponded to a volume of 0.2 ml/mouse and 0.1 ml/100 g weight of rat). Fifteen minutes after the lipidated analog of prolactin releasing peptide (PrRP) administration, the mice were given pre-weighed food. The food was then weighed every 30 minutes for 5-10 hours. The administration of each dose was performed at least twice, and each group of mice consisted of at least 6 mice.

[5] = system: C57BL/6 mice; assay: Food intake in fasted mice after SC injection; assay type: in vivo; settings: 5 mg/kg SC, 45 min after injection
Procedure, shortened: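 Overnight-fasted animals (food removed 17 h before dosing, water available) in individual cages got saline, PrRP or lipidated PrRP analogs SC at 1-10 mg/kg.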

[6] = system: diabetic db/db mice; assay: IPGTT after 14 days administration to diabetic db/db mice; assay type: in vivo; settings: 5 mg/kg SC twice a day for 14 days, vs saline
Method: Then, mice were fasted overnight and IPGTT was performed. After initial blood glucose measurement, 2 g/kg glucose solution was administered IP and glucose followed every hour for 7 hours. Glucose level is shown at the end of the experiment (420 min).
Db/db male mice and their respective controls were acclimatized after arrival, housed 2-3 mice per cage, and used in the experiment at age 11-12 weeks. Mice had free access to food and water, and were subjected to a 14-day experiment. […] The body weight of the mice was followed simultaneously. Following 14 days of treatment, mice were fasted overnight and IPGTT was performed. After initial blood glucose measurement, 2 g/kg glucose solution was administered IP, and glucose levels were measured every hour for 7 hours.

CCCCCCCCCCCCCCCC(=O)N[C@@H](CO)C(=O)N[C@@H](CCCNC(=N)N)C(=O)N[C@H](C(=O)N[C@@H](Cc1c[nH]cn1)C(=O)N[C@@H](CCCNC(=N)N)C(=O)N[C@@H](Cc1c[nH]cn1)C(=O)N[C@@H](CO)C(=O)N[C@@H](CCSC)C(=O)N[C@@H](CCC(=O)O)C(=O)N[C@H](C(=O)N[C@@H](CCCNC(=N)N)C(=O)N[C@H](C(=O)N1CCC[C@H]1C(=O)N[C@@H](CC(=O)O)C(=O)N[C@H](C(=O)N[C@@H](CC(N)=O)C(=O)N1CCC[C@H]1C(=O)N[C@@H](C)C(=O)N[C@@H](Cc1c[nH]c2ccccc12)C(=O)N[C@@H](Cc1ccc(O)cc1)C(=O)N[C@@H](C)C(=O)N[C@@H](CO)C(=O)N[C@@H](CCCNC(=N)N)C(=O)NCC(=O)N[C@H](C(=O)N[C@@H](CCCNC(=N)N)C(=O)N1CCC[C@H]1C(=O)N[C@H](C(=O)NCC(=O)N[C@@H](CCCNC(=N)N)C(=O)N[C@@H](Cc1ccccc1)C(N)=O)C(C)C)[C@@H](C)CC)[C@@H](C)CC)[C@@H](C)O)[C@@H](C)CC)[C@@H](C)O [Analog 43]
Ki [1]: 0.95 ± 0.35 nM
Displacement of rat 125I-PrRP binding ([1]; RC-4B/C cells, rat PrRP receptor): nmol·l^−1 range
% of PrRP31, RC-4B/C rat pituitary cells ([1]; affinity relative to PrRP31): 519%
IPGTT glucose levels [2]: lower
IPGTT total area under the curve [2]: clearly lower
Large spike in blood glucose in IPGTT [3]: did not
Food intake in rats [4]: significantly reduced
Food intake in mice % of saline-treated group [5]: 30%
IPGTT glucose level at end of experiment (420 min) [6]: significantly lower
